Assays:
Type in all cases: in vitro ADME
[1] = Stability in rat hepatocytes
Method: The stability experiment on rat hepatocytes was performed using compound 77 of the present invention as a representative example.
Procedure: The rat hepatocyte William's Medium E mixed reaction solution (2*10^6 cells/mL, 25 BD Gentest) was placed in a carbon dioxide incubator, and a certain volume of test substance or reference substance was added to the reaction system to initiate the reaction. In the final reaction system, the concentrations of the test substance or positive control testosterone were both 1 uM. Samples were taken at 0, 5, 15, 30, 45, 60, and 120 min after the reaction to a new centrifuge tube (3 portions in parallel at each time point), and 3-fold volume of ice methanol solution containing internal standard was added immediately to terminate the reactions, then after centrifugation for 5 min at 15,000 rpm to precipitate the protein, 100 μL of the supernatant was fetched to an autosampler vial for LC-MS/MS analysis (Waters Corp. ACQUITY UPLC, USA Applied Biosystems Inc. mass spectrometer API 400). The ratio of mean peak area of compound 77 to the mean peak area of internal standard at each time point was calculated, and the percentage of this ratio to that at time point 0 was calculated, and then change in this percentage was used to indicate the metabolic stability of the compound 77. […]

CYP2C8 = biological target: T1, CYP2C8 (Homo sapiens, UniProt P10632); experiment: P450 enzyme inhibition, CYP2C8; conditions: human liver microsomes
T1 construct: human liver microsomes (BD Gentest) (0.5 mg/mL); tissue BD Gentest; host or cells: human liver microsomes
T1 sequence (P10632 1-490): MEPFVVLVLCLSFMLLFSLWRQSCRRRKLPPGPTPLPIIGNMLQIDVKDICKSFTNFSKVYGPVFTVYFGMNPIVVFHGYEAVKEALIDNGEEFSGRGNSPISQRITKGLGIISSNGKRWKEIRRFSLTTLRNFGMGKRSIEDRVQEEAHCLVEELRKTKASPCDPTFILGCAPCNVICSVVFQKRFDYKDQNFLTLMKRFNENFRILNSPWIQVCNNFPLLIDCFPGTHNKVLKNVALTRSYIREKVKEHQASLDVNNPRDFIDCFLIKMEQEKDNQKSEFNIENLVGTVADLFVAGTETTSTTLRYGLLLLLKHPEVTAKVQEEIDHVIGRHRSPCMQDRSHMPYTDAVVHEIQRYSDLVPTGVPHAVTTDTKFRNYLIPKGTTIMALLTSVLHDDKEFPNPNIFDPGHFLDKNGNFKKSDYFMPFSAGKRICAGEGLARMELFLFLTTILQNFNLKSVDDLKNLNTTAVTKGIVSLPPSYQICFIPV
Method: (§1) Eight cytochrome p450 enzyme inhibition reactions of human liver microsomes were performed using compound 77 of the present invention as a representative example.
(§2) The main reaction systems and processes: in 37° C. water bath, the test compounds (7 concentrations, 0, 0.25, 0.5, 5, 10, 25, and 50 uM; the final methanol concentration was 1% in the system), human liver microsomes (BD Gentest) (0.5 mg/mL) and reducing coenzyme II (Roche 10621706001) (1 mg/mL) and the corresponding cytochrome p450 enzyme probe substrate were co-incubated for 5 to 20 minutes. Among them, (1) the probe substrate for CYP1A2 was Phenacetin ([…]) (Sigma), and the selective inhibitor alpha-naphthoflavone (2 uM) (Sigma) was for parallel detection as positive control, and they were incubated for 20 minutes. (2) The probe substrate for CYP2b6 was Bupropion (40 uM) (Sigma) and the selective inhibitor Ticlopidine (10 uM) (Sigma) was for parallel detection as positive control, and they were incubated for 20 minutes. (3) The probe substrate of CYP2C8 was Amodiaquine (1 uM) (Sigma), and the selective inhibitor Montelukast (10 uM) (Sigma) was for parallel detection as positive control, and they were incubated for 20 minutes. (4) The probe substrate for CYP2C9 was Diclofenac (2.5 uM) (Sigma), and the selective inhibitor Sulphaphenazole (10 uM) (Sigma) was for parallel detection as positive control, and they were incubated for 20 minutes. (5) The probe substrate for CYP2C19 was Mephenytoin (40 uM) (Sigma), and the selective inhibitor Ticlopidine (10 uM) (Sigma) was for parallel detection as positive control, and they were incubated for 20 minutes. (6) The probe substrate for CYP2D6 was Dextromethorphan (5 uM) (Sigma), and the selective inhibitor Quinidine (10 uM) (Sigma) was for parallel detection as positive control, and they were incubated for 20 minutes. (7) The probe substrates for CYP3A4-T and CYP3A4-M were Testosterone (5 uM) (Sigma) and Midazolam (5 uM) (Sigma), respectively, and the selective inhibitor was Ketoconazole (1 uM) (Sigma), they were detected in parallel as positive control, and incubated for 5 minutes. The reaction system was quenched by adding methanol containing the corresponding internal standard. The internal standard compound was Tolbutamide (Sigma). The concentration of the corresponding metabolites was determined by LC/MS/MS. For the data analysis, the decrease in peak area of the metabolite of the sample after addition of compound 77 relative to the peak area of the metabolite of the solvent control sample was used to calculate the IC50 (concentration of the test substance at 50% inhibition). The percentages of peak areas of metabolites of CYP1A2, CYP2B6, CYP2C8, CYP2C9, 15CYP2C19, CYP2D6, CYP3A4-T, and CYP3A4-M probe substrates after addition of different concentrations of compound 77 and selective inhibitors relative to the solvent control peak areas were shown in the Table 7.

CYP2C9 = biological target: T2, CYP2C9 (Homo sapiens, UniProt P11712); experiment: P450 enzyme inhibition, CYP2C9; conditions: human liver microsomes
T2 construct: human liver microsomes (BD Gentest) (0.5 mg/mL); tissue BD Gentest; host or cells: human liver microsomes
T2 sequence (P11712 whole entry): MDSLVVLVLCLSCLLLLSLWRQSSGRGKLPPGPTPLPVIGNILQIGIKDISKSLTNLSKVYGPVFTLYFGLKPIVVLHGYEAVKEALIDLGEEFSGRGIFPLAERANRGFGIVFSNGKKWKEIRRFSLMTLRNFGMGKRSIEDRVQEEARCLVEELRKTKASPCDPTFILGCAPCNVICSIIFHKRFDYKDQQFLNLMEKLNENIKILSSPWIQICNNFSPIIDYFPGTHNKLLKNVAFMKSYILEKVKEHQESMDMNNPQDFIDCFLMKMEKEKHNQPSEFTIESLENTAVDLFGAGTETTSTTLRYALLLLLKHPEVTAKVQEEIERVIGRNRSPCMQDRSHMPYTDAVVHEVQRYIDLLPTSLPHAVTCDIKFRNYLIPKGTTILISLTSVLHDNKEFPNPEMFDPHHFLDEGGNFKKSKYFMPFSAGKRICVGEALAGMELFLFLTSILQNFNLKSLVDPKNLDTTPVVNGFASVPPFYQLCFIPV
Method: as §1, §2

CYP2C19 = biological target: T3, CYP2C19 (Homo sapiens, UniProt P33261); experiment: P450 enzyme inhibition, CYP2C19; conditions: human liver microsomes
T3 construct: human liver microsomes (BD Gentest) (0.5 mg/mL); tissue BD Gentest; host or cells: human liver microsomes
T3 sequence (P33261 whole entry): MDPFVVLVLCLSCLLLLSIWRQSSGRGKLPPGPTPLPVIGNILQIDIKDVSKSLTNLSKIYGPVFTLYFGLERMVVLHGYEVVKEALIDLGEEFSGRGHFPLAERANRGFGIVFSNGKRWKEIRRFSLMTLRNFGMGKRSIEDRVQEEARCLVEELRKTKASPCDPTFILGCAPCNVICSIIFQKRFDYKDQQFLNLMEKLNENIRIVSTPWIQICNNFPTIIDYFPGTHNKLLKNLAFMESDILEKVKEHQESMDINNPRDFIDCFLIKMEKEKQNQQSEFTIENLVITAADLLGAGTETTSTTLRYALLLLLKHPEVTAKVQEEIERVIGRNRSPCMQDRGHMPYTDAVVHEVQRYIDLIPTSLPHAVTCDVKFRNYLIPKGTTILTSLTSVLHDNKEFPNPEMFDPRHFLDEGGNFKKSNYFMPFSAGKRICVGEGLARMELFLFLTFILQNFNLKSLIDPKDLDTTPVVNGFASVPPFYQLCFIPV
Method: as §1, §2

## COCCOc1ccc2c(c1)ncn2-c1ccc(NC(=O)Nc2cc(C(C)(C)C)n[nH]2)cc1 [Compound 77, 1-(5-tert-butyl-2H-pyrazol-3-yl)-3-{4-[5-(2-methoxyl-ethoxyl)-benzimidazol-1-yl]-phenyl}-urea]
[1]
  half-life at 1 uM: > 2 h
CYP2C8; Concentration 0.25 uM
  CYP2C8 Remaining %: 99.2%
CYP2C8; Concentration 0.5 uM
  CYP2C8 Remaining %: 103.5%
CYP2C8; Concentration 5 uM
  CYP2C8 Remaining %: 90.7%
CYP2C8; Concentration 10 uM
  CYP2C8 Remaining %: 88.5%
CYP2C8; Concentration 25 uM
  CYP2C8 Remaining %: 81.7%
CYP2C8; Concentration 50 uM
  CYP2C8 Remaining %: 49.1%
CYP2C8
  IC50: ≥ 50 µM
CYP2C9; Concentration 0.25 uM
  CYP2C9 Remaining %: 99.6%
CYP2C9; Concentration 0.5 uM
  CYP2C9 Remaining %: 104.5%
CYP2C9; Concentration 5 uM
  CYP2C9 Remaining %: 99.0%
CYP2C9; Concentration 10 uM
  CYP2C9 Remaining %: 90.9%
CYP2C9; Concentration 25 uM
  CYP2C9 Remaining %: 72.5%
CYP2C9; Concentration 50 uM
  CYP2C9 Remaining %: 39.9%
CYP2C9; read-out: half-inhibitory concentration (IC50) of CYP2C9
  IC50: 41.6 µM
CYP2C19; Concentration 0.25 uM
  CYP2C19 Remaining %: 104.2%
CYP2C19; Concentration 0.5 uM
  CYP2C19 Remaining %: 100.8%
CYP2C19; Concentration 5 uM
  CYP2C19 Remaining %: 106.9%
CYP2C19; Concentration 10 uM
  CYP2C19 Remaining %: 102.9%
CYP2C19; Concentration 25 uM
  CYP2C19 Remaining %: 91.3%
CYP2C19; Concentration 50 uM
  CYP2C19 Remaining %: 67.6%
CYP2C19; read-out: half-inhibitory concentration (IC50) of CYP2C19
  IC50: > 50 µM
